This passage reports IC50 results from US20230365563A1, “QUINAZOLINE COMPOUND AND APPLICATION THEREOF” (SHANGHAI PHARMACEUTICALS HOLDING CO., LTD., priority 2020, published 2023).

Structures can show the parent of a compound that is named as a salt.

By IC50 is commonly meant the concentration at which inhibition is half-maximal.

For the assay, the target named is T1, KRAS-G12D and SOS1 (Homo sapiens, UniProt P01116, G12D).
T1 construct: purchased
T1 sequence (P01116 1-188 isoform P01116-2 G12D): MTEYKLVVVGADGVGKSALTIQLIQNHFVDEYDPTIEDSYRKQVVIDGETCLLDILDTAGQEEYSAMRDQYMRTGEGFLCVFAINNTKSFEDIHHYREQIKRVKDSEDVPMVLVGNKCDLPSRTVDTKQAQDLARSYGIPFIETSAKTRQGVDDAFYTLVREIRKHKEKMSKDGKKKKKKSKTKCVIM
As to the kind of experiment: Inhibition of KRAS-G12D/SOS1 binding (Cisbio binding kit, 665/615 ratio), Effect Embodiment A. As to conditions: read-out: GTP-KRAS-G12D:SOS1 IC50. In outline: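 Duplicate wells received an eleven-point, threefold compound titration whose top point was the stock solution; final DMSO 1%.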
For the molecule `CN(C)C1CN(c2nc(N3CCC4(CCCN4)CC3)c3cc(Cl)c(-c4cc(O)cc5ccccc45)c(F)c3n2)C1` (single isomer, unassigned) [Compound 12a, (R or S)-4-(6-chloro-2-(3-(dimethylamino)azetidin-1-yl)-8-fluoro-4-(1,8-diazaspiro[4.5]decan-8-yl)quinazolin-7-yl)naphthalen-2-ol], the half-maximal inhibitory concentration (IC50) worked out at 7.12 µM. The result for `CC(=O)NCCN(C)c1nc(N2CC(N(C)C)C2)nc2c(F)c(-c3cc(O)cc4ccccc34)c(Cl)cc12` (single isomer, unassigned) [Compound 84, (S or R)—N-(2-((6-chloro-2-(3-(dimethylamino)azetidin-1-yl)-8-fluoro-7-(3-hydroxynaphthalen-1-yl)quinazolin-4-yl)(methyl)amino)ethyl)acetamide] reads 3.05 µM; that for `CN(C)C1CN(c2nc(NC3CC4CCCC(C3)N4)c3cc(Cl)c(-c4cc(O)cc5ccccc45)c(F)c3n2)C1` (single isomer, unassigned) [Compound 31, 4-((S or R)-4-(((1R,3R,5S)-9-azabicyclo[3.3.1]nonan-3-yl)amino)-6-chloro-2-(3-(dimethylamino)azetidin-1-yl)-8-fluoroquinazolin-7-yl)naphthalen-2-ol], about 69.7 µM; that for `Cc1ccc2[nH]ncc2c1-c1c(Cl)cc2c(N3CC4CCC(C3)N4)nc(OC[C@@H]3CCCN3C)nc2c1F` (single isomer, unassigned) [Compound 90a, 4-((1R,5S)-3,8-diazabicyclo[3.2.1]octan-3-yl)-6-chloro-8-fluoro-7-((R or S)-5-methyl-1H-indazol-4-yl)-2-((S)-1-methylpyrrolidin-2-yl)methoxy)quinazoline hydrochloride], 0.263 µM. The figure for `CCc1cccc2cc(O)cc(-c3c(F)cc4c(N5CC6CCC(C5)N6)nc(OC[C@H](C)CN5C6CCC5COC6)nc4c3F)c12` (single isomer, unassigned) [Compound 284b, (4R or 4S)-4-(2-((2R)-3-(3-oxa-8-azabicyclo[3.2.1]octan-8-yl)-2-methylpropoxy)-4-((1R,5S)-3,8-diazabicyclo[3.2.1]octan-3-yl)-6,8-difluoroquinazolin-7-yl)-5-ethylnaphthalen-2-o1 dihydrochloride] is 2.01 µM. As for `CCc1cccc2cc(O)cc(-c3c(F)cc4c(N5CC6CCC(C5)N6)nc(OCCCN5CCOC[C@H]5C)nc4c3F)c12` (single isomer, unassigned) [Compound 282b, (R or S)-4-(4-((1R,5S)-3,8-diazacyclo[3.2.1]octan-3-yl)-6,8-difluoro-2-(3-((R)-3-methylmorpholinyl)propoxy)quinazolin-7-yl)-5-ethylnaphthalen-2-ol dihydrochloride], the IC50 was found to be 5.07 µM. The figure for `CN(C)C1CN(c2nc(C3CCNCC3)c3cc(Cl)c(-c4cc(O)cc5ccccc45)c(F)c3n2)C1` [Compound 20a, (R or S)-4-(6-chloro-2-(3-(dimethylamino)azetidin-1l-yl)-8-fluoro-4-(piperidin-4-yl)quninazolin-7-yl)naphthalen-2-ol] is 4.8 µM.

`Cn1ccnc1COc1nc(N2C[C@H]3CC[C@@H](C2)N3)c2cnc(-c3cc(O)cc4ccccc34)c(F)c2n1` [Compound 132, 4-(4-((1R,5S)-3,8-diazabicyclo[3.2.1]octan-3-yl)-8-fluoro-2-((1-methyl-1H-imidazol-2-yl)methoxy)pyridinyl[4,3-d]pyrimidin-7-yl)naphthalen-2-ol trifluoroacetate]: the IC50 is 0.762 µM. The figure for `Oc1cc(-c2ncc3c(N4C[C@H]5CC[C@@H](C4)N5)nc(OCCc4ccccn4)nc3c2F)c2ccccc2c1` [Compound 138, 4-(4-((1R,5S)-3,8-diazabicyclo[3.2.1]octan-3-yl)-8-fluoro-2-(2-(pyridin-2-yl)ethoxy)pyridyl[4,3-d]pyrimidin-7-yl)naphthalen-2-ol trifluoroacetate] is 0.108 µM; for `C#Cc1c(F)ccc2cc(O)cc(-c3c(Cl)cc4c(N5CC6CCC(C5)N6)nc(OCCCN5C6CCC5COC6)nc4c3F)c12` (single isomer, unassigned) [Compound 255a, (4S or 4R)-4-(2-(3-(3-oxa-8-azabicyclo[3.2.1]octan-8-yl)propoxy)-4-(1R,5S)-3,8-diazabicyclo[3.2.1]octan-3-yl)-6-chloro-8-fluoroquinazolin-7-yl)-5-ethynyl-6-fluoronaphthalen-2-ol diformate] it is 5.12 µM. The figure for `CCc1c(F)ccc2cccc(-c3c(F)cc4c(N5CC6CCC(C5)N6)nc(OC[C@@]56CCCN5C[C@H](F)C6)nc4c3F)c12` (single isomer, unassigned) [Compound 280b, 4-((1R,5S)-3,8-diazacyclo[3.2.1]octan-3-yl)-7-((R or S)-8-ethyl-7-fluoronaphthalen-1-yl)-6,8-difluoro-2-((2R,7aS)-2-fluorotetrahydro-1H-pyrrolidin-7a(5H)-yl)methoxy)quinazoline dihydrochloride] is 0.31 µM; for `CN(C)C1CN(c2nc(N3CC4CCC(C3)N4)c3cc(Cl)c(-c4cc(O)cc5cccc(F)c45)c(F)c3n2)C1` (single isomer, unassigned) [Compound 64a, 4-((S or R)-4-((1R,5S)-3,8-diazabicyclo[3.2.1]octan-3-yl)-6-chloro-2-(3-(dimethylamino)azetidin-1-yl)-8-fluoroquinazolin-7-yl)-5-fluoronaphthalen-2-ol] it is 31.7 µM. Regarding `C[C@@H](COc1nc(N2CC3CCC(C2)N3)c2cc(Cl)c(-c3cc(O)cc4ccccc34)c(F)c2n1)CN1CC(C)(C)OC(C)(C)C1` (single isomer, unassigned) [Compound 217, 4-((S or R)-4-((1R,5S)-3,8-diazabicyclo[3.2.1]octan-3-yl)-6-chloro-8-fluoro-2-((R)-2-methyl-3-(2,2,6,6-tetramethylmorpholinyl)propoxy)quinazolin-7-yl)naphthalen-2-ol formate], the IC50 stood at 0.191 µM. The result for `CNCCN(C)c1nc(N2CC(N(C)C)C2)nc2c(F)c(-c3cc(O)cc4ccccc34)c(Cl)cc12` (single isomer, unassigned) [Compound 16a, (R or S)-4-(6-chloro-2-(3-(dimethylamino)azetidin-1-yl)-8-fluoro-4-(methyl(2-(methylamino)ethyl)amino)quinazolin-7-yl)naphthalen-2-ol] reads 3.49 µM. With `CC(=N)N1C2CCC1CN(c1nc(N3CC(N(C)C)C3)nc3c(F)c(-c4cc(O)cc5ccccc45)c(Cl)cc13)C2` (single isomer, unassigned) [Compound 87, 4-((S or R)-6-chloro-2-(3-(dimethylamino)azetidin-1-yl)-8-fluoro-4-((1R,5S)-8-(1-iminoethyl)-3,8-diazabicyclo[3.2.1]octan-3-yl)quinazolin-7-yl)naphthalen-2-ol trifluoroacetate], the IC50 is 23.3 µM. The result for `Oc1cc(Cl)c(C2CC2)c(-c2c(Cl)cc3c(N4CC5CCC(C4)N5)nc(OCCCN4C5CCC4COC5)nc3c2F)c1` (single isomer, unassigned) [Compound 197b, 3-((7S or 7R)-2-(3-(3-oxa-8-azabicyclo[3.2.1]octan-8-yl)propoxy)-4-((1R,5S)-3,8-diazabicyclo[3.2.1]octan-3-yl)-6-chloro-8-fluoroquinazolin-7-yl)-5-chloro-4-cyclopropylphenol formate] reads 2.71 µM.
